According to the supplement of paper PMC4862054:

How the values were obtained:
Experiment in all cases: normalised response (% of control), CellTox Green; higher = less cell death (100 = DMSO, 0 = benzethonium chloride kill control)
Details in all cases: incubation time: 72 h
[1] = tested on: DU-4475
Summary of the method: (§1)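 For each plate, 0.1 % DMSO was set to 100 and a positive kill control to 0. Breast cancer cell lines (20 µl suspension) were seeded into 384-well plates already holding compound at 5 concentrations in 10-fold steps over a 10,000-fold range chosen per compound, and incubated for 72 h. CellTox Green fluorescence at 485/520 nm was read before CellTiter-Glo luminescence, which followed 10 min at room temperature. Each value is the normalised signal at one concentration.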

[2] = tested on: MCF-10A
Summary of the method: as §1

[3] = tested on: BT-549
Summary of the method: as §1

[4] = tested on: MFM-223
Summary of the method: as §1

[5] = tested on: CAL-51
Summary of the method: as §1

[6] = tested on: BT-474
Summary of the method: as §1

[7] = tested on: CAL-85-1
Summary of the method: as §1

[8] = tested on: Hs578T
Summary of the method: as §1

[9] = tested on: HCC1937
Summary of the method: as §1

[10] = tested on: MDA-MB-436
Summary of the method: as §1

[11] = tested on: HCC1143
Summary of the method: as §1

[12] = tested on: CAL-148
Summary of the method: as §1

[13] = tested on: HCC1599
Summary of the method: as §1

[14] = tested on: MDA-MB-231
Summary of the method: as §1

[15] = tested on: CAL-120
Summary of the method: as §1

[16] = tested on: MDA-MB-453
Summary of the method: as §1

[17] = tested on: MDA-MB-468
Summary of the method: as §1

[18] = tested on: HDQ-P1
Summary of the method: as §1

SMILES	normalised response [1]	normalised response [2]	normalised response [3]	normalised response [4]	normalised response [5]	normalised response [6]	normalised response [7]	normalised response [8]	normalised response [9]	normalised response [10]	normalised response [11]	normalised response [12]	normalised response [13]	normalised response [14]	normalised response [15]	normalised response [16]	normalised response [17]	normalised response [18]
COC1=CC(c2cc3ccccc3[nH]2)=N/C1=C\c1[nH]c(C)cc1C [Obatoclax] (1000 nM)	98.1%	70.1%	113%	102%	100%	97.3%	101%	107%	-5.92%	91.5%	105%	105%	100%	64.3%	90.5%	105%	107%	–
COc1ccc(C2=N[C@@H](c3ccc(Cl)cc3)[C@@H](c3ccc(Cl)cc3)N2C(=O)N2CCNC(=O)C2)c(OC(C)C)c1 [Nutlin-3] (10000 nM)	91%	101%	105%	96.4%	41.2%	97.6%	80.3%	115%	–	95%	105%	43.8%	101%	108%	98.2%	92.3%	107%	103%
CCCC(CCC)C(=O)O [Valproic acid] (10000 nM)	104%	107%	117%	101%	95.7%	85%	111%	100%	76%	117%	94.8%	102%	93.2%	–	106%	107%	86.2%	–
CCS(=O)(=O)c1cccc(-c2cc(C(=O)NC3CCN(C)CC3)c(C)c3[nH]c4ncc(C)cc4c23)c1 [TAK-901] (100 nM)	100%	107%	116%	94%	53.8%	101%	97.9%	76.4%	91.5%	96.8%	118%	42%	99.7%	92.3%	102%	107%	-31.9%	–
CS(=O)(=O)CCNCc1ccc(-c2ccc3ncnc(Nc4ccc(OCc5cccc(F)c5)c(Cl)c4)c3c2)o1 [Lapatinib] (1000 nM)	100%	26.9%	93.4%	104%	106%	76.4%	59.3%	–	–	98.7%	99%	64.5%	107%	–	99.2%	82.5%	84.8%	96.8%
CS(=O)(=O)OCCCCOS(C)(=O)=O [Busulfan] (100000 nM)	97.4%	95.5%	110%	84.1%	106%	100%	77.6%	123%	105%	95.6%	94.9%	81.5%	108%	99.8%	101%	97.6%	–	–
Cn1c(=O)c(F)c(Nc2ccc(I)cc2F)c2c(=O)n(C[C@@H](O)CO)cnc21 [TAK-733] (100 nM)	74%	79.7%	89.6%	74.9%	80.9%	103%	89%	–	108%	104%	124%	105%	104%	71.3%	97%	112%	127%	97.3%
CC(C)(C)c1cc(NC(=O)Nc2ccc(-c3cn4c(n3)sc3cc(OCCN5CCOCC5)ccc34)cc2)no1 [Quizartinib] (1000 nM)	102%	93.3%	127%	59.1%	111%	101%	62.5%	–	96%	71.8%	132%	103%	105%	124%	103%	112%	174%	90.1%
COc1cccc2c1C(=O)c1c(O)c3c(c(O)c1C2=O)C[C@@](O)(C(C)=O)C[C@@H]3O[C@H]1C[C@H](N)[C@H](O)[C@H](C)O1 [Daunorubicin] (100 nM)	100%	106%	124%	99.6%	73.5%	99.5%	102%	90.7%	–	98.2%	75.9%	-17.1%	102%	104%	105%	110%	96.9%	–
O=c1[nH]cc(F)c(=O)[nH]1 [Fluorouracil] (10000 nM)	99.2%	75.7%	95.8%	103%	120%	105%	75%	118%	104%	75.7%	103%	92.9%	95.2%	105%	105%	100%	-57.8%	–
O=C(c1ccc(OCCN2CCCCC2)cc1)c1c(-c2ccc(O)cc2)sc2cc(O)ccc12 [Raloxifene] (10000 nM)	99.6%	82.2%	101%	102%	108%	95.4%	63.3%	–	82.8%	104%	118%	103%	58.4%	62.7%	–	99.2%	82.7%	50.4%
CN1CCN(c2ccc3nc(-c4c(N)c5c(F)cccc5[nH]c4=O)[nH]c3c2)CC1 [Dovitinib] (10000 nM)	101%	99.3%	121%	99.1%	118%	99.9%	86.8%	–	97.9%	108%	111%	92.4%	104%	–	101%	103%	126%	108%
